Assay results published in US8518989B2, “Prodrugs of short-chain fatty acids and treatment methods” (Georgia Health Sciences University Research Institute, Inc., priority 2005, dated 2013).
Like-named read-outs stand apart in the source and are kept apart here.

Assays:
rat ATB^0,+ [1] = molecular target: T1, rat ATB^0,+ (Rattus norvegicus, UniProt Q334I2); test: Substrate-induced inward currents in Xenopus oocytes expressing rat ATB0,+ (voltage clamp); format: cell-based; settings: for Inward currents induced in ATB0,+-expressing oocytes (in words): 5 mM; for Inward currents induced in ATB0,+-expressing oocytes (in words) / K0.5 (substrate concentration for half-maximal current): voltage clamp; for K0.5 (substrate concentration for half-maximal current): ATB0,+-expressing oocytes
T1 sequence (Q334I2 1-640): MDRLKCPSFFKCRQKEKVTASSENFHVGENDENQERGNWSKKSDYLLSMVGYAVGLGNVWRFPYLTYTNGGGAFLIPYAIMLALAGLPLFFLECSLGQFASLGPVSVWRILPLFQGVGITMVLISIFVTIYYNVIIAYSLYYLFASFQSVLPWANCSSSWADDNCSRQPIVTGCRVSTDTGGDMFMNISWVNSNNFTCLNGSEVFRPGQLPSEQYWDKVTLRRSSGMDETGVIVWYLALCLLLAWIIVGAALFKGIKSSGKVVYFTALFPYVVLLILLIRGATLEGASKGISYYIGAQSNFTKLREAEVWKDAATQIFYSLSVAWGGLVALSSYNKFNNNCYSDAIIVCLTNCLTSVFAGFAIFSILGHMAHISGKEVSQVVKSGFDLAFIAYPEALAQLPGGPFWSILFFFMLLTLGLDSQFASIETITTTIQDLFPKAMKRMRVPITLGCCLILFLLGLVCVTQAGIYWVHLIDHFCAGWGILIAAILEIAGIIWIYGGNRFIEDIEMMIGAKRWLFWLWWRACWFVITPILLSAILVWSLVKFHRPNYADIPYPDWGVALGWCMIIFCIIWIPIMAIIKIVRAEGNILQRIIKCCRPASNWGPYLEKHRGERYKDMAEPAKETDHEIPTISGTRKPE
Description: Experiments with HRPE cells were repeated at least three times with three independent transfections and transport measurements made in duplicate in each experiment. Electrophysiological measurements of substrate-induced currents were repeated at least three times with separate oocytes. The data are presented as means±S.E.M. of these replicates. The kinetic parameters, Michaelis constant (Kt) and maximal velocity (Vmax) were calculated by fitting the ATB^0,+-specific transport data to the Michaelis-Menten equation describing a single saturable transport system. Na^+ and Cl^−-activation kinetics were analyzed by fitting the ATB^0,+-specific transport data to the Hill equation for the determination of K0.5 values for Na^+ and Cl^− (concentration of Na^+ and Cl^− necessary for half-maximal activation) and the Hill coefficient (nH; the number of Na^+ or Cl^− ions involved in the activation process). The kinetics parameters were first determined by non-linear regression methods and subsequently confirmed by linear regression methods using the commercially-available computer program SigmaPlot, version 6.0 (SPSS Inc., Chicago, Ill., US).
Therefore, it was necessary to determine whether or not the α-carboxyl esters of neutral amino acids are transportable substrates for ATB^0,+. For this purpose, we used the X. laevis oocyte expression system. Cloned rat ATB^0,+ was functionally expressed in oocytes by injection of corresponding cRNA, and the transport of substrates via the transporter was monitored by inward currents when the oocytes were exposed to putative substrates under voltage-clamp conditions.

rat ATB^0,+ [2] = molecular target: T1, rat ATB^0,+; test: Inhibition of ATB0,+-mediated 3H-glycine uptake in HRPE cells expressing cloned rat ATB0,+; format: cell-based; settings: for Inhibition of ATB0,+-mediated glycine transport (in words): 5 mM
[3] = tested on: MCF7 cells transfected with SMCT1 cDNA; test: Colony formation assay in MCF7 cells transfected with SMCT1 cDNA; format: cell-based, human; settings: SMCT1-expressing MCF7 cells; for IC50: two weeks
human SLC5A8 [4] = molecular target: T2, human SLC5A8 (Homo sapiens, UniProt Q8N695, F251V/V193I); test: Two-microelectrode voltage clamp of substrate-induced currents in SLC5A8-expressing oocytes; format: cell-based; settings: for K0.5 for SLC5A8: Na+ 100 mM
T2 construct: We amplified the coding region of SLC5A8 mRNA by RT-PCR using human intestinal mRNA as the template; expressed in transfected cells; host or cells: Xenopus laevis oocytes, 50 ng capped cRNA from the pGH19 construct
T2 sequence (Q8N695 1-610 V193I/F251V): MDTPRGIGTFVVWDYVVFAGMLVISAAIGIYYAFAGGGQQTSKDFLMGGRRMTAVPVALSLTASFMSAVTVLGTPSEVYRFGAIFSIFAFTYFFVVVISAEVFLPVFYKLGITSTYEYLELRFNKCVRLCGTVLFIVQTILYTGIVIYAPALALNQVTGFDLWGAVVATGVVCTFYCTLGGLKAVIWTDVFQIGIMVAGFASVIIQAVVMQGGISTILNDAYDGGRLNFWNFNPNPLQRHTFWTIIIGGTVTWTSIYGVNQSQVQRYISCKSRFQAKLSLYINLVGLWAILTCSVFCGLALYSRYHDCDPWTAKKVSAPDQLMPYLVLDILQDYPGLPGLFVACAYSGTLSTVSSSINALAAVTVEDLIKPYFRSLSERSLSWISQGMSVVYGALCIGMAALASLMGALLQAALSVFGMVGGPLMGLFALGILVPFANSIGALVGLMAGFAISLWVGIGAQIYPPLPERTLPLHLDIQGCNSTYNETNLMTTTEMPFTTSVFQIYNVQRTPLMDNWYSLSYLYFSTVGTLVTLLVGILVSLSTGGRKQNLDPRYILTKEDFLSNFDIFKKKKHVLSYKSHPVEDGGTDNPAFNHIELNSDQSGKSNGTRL
Description: (§1) The amplified human SLC5A8 cDNA was expressed heterologously in Xenopus oocytes by cRNA injection. Capped cRNA from SLC5A8 cDNA was synthesized using the mMESSAGE mMACHINE kit (Ambion Inc., Austin, Tex.). Mature oocytes (stage 1V or V) from Xenopus laevis were injected with 50 ng cRNA. Uninjected oocytes served as controls. The oocytes were used for uptake and electrophysiological studies 3-6 days after cRNA injection. Uptake of radiolabeled substrates in uninjected and cRNA-injected oocytes was determined as described previously (Fei, Y. J., et al., (1995) Biochemistry 34, 8744-8751).
(§2) Eight oocytes were used for each uptake measurement. Electrophysiological studies were performed by the two-microelectrode voltage clamp method (11. Wang, H., Fei, et al., (2000) Am. J. Physiol. 278:C1019-C1030; Inoue, K, et al. (2004) Biochem. J. 378:949-957).
Oocytes were perfused with a NaCl-containing buffer (100 mM NaCl, 2 mM KCl, 1 mM MgCl2, 1 mM CaCl2, 3 mM Hepes, 3 mM Mes, and 3 mM Tris, pH 7.5), followed by the same buffer containing different fatty acids. The membrane potential was clamped at −50 mV. The differences between the steady-state currents measured in the presence and absence of substrates were considered as the substrate-induced currents. To investigate the current-membrane potential (I—V) relationship, step changes in membrane potential were applied, each for a duration of 100 ms in 20-mV increments. The kinetic parameter K0.5 (i.e. the substrate concentration necessary for the induction of half-maxima) current) was calculated by fitting the values of the substrate-induced currents to Michaelis-Menten equation. The Na^+-activation kinetics was analyzed by measuring the substrate-specific currents in the presence of increasing concentrations of Na^+. The data were analyzed by the Hill equation to determine the Hill coefficient (h; the number of Na^+ ions involved in the activation process). The kinetic parameters were determined using the computer program Sigma Plot, version 6.0 (SPSS, Inc., Chicago, Ill.). Electrophysiological measurements of substrate-induced currents were repeated at least four times with separate oocytes. The data are presented as means±S.E. of these replicates.
The charge-to substrate transfer ratio was determined for propionate in four different oocytes as described previously (Wang, H., et al. (2000) Am. J. Physiol. 278:C1019-C1030 12. Inoue, K., Fei, Y. J., Zhuang, L., Gopal, E., Miyauchi, S., and Ganapathy, V. (2004) Biochem. J. 378:949-957). The oocytes were perfused with 25 μM propionate (unlabeled plus radiolabeled propionate), and inward currents were monitored over a period of 8-10 min. At the end of the experiment, the amount of propionate transported into the oocytes was calculated by measuring the radioactivity associated with the oocytes. The area within the curve describing the relationship between the time and inward current was integrated to calculate the charge transferred into the oocyte during incubation with propionate. The values for substrate transfer and charge transfer were used to determine the charge to substrate transfer ratio.

SW480 = SW480 cells; cited from earlier work
human SLC5A8 [5] = molecular target: T2, human SLC5A8; test: Uptake of radiolabeled short-chain fatty acids in Xenopus oocytes injected with SLC5A8 cRNA; format: cell-based; design: Uptake, uninjected oocytes / Uptake, cRNA-injected oocytes: unit not given here; settings: 1 h incubation; for Uptake, cRNA-injected oocytes: SLC5A8 cRNA-injected oocytes; for Uptake, uninjected oocytes: uninjected control oocytes
Description: as §1, §2
Uptake of short-chain fatty acids in uninjected oocytes and in oocytes injected with SLC5A8 cRNA was measured with 1 h incubation. Concentration of substrates (labeled plus unlabeled) varied in the range of 50-500 μM depending on the specific radioactivity of the substrates. Eight oocytes were used for each uptake measurement. Data represent means±SE.

N[C@@H](CO)C(=O)O [L-serine]
Inward currents induced in ATB0,+-expressing oocytes (in words) (rat ATB^0,+ [1]): induced marked inward currents

CCCC(=O)OC[C@H](N)C(=O)O [O-butyryl-L-serine, O-Butyryl-L-serine]
Hill coefficient for Na+ (rat ATB^0,+ [1]; 2 mM substrate, Cl- 100 mM): 1.74±0.23 | K0.5 for Na+ (rat ATB^0,+ [1]; 2 mM substrate, Cl- 100 mM): 5.02 ± 0.25 mM | Hill coefficient for Cl- (rat ATB^0,+ [1]; 2 mM substrate, Na+ 100 mM): 1.33±0.02 | K0.5 for Cl- (rat ATB^0,+ [1]; 2 mM substrate, Na+ 100 mM): 6.28 ± 0.33 mM | Inward currents induced in ATB0,+-expressing oocytes (in words) (rat ATB^0,+ [1]): induced marked inward currents | IC50 (rat ATB^0,+ [2]): 118 ± 8 µM | Kt of ATB0,+-mediated glycine transport in the presence of inhibitor (rat ATB^0,+ [2]; 5 mM inhibitor, HRPE cells): 102 ± 17 µM | Vmax of ATB0,+-mediated glycine transport in the presence of inhibitor (rat ATB^0,+ [2]; 5 mM inhibitor, HRPE cells): 47 ± 5 nmol/10^6 cells/30 minutes | Inhibition of ATB0,+-mediated glycine transport (in words) (rat ATB^0,+ [2]; HRPE cells): inhibited glycine transport significantly

CCCC(=O)O [butyrate]
IC50 ([3]; Homo sapiens, 336 h): 37 ± 5 µM

CC(=O)C(=O)O [pyruvate]
IC50 ([3]; Homo sapiens, 336 h): 72 ± 12 µM

CCCCC(=O)O [pentanoate]
Relative magnitude of substrate-induced currents (human SLC5A8 [4]; 5 mM, -50 mV): intermediate

EGF: growth factor used as mitogenic stimulus in SW480 cells
Cell proliferation (SW480): 27% | Increase of Na+-dependent arginine transport (SW480): 66%

CC(=O)OC[C@H](N)C(=O)O [O-acetyl-L-serine]
Inward currents induced in ATB0,+-expressing oocytes (in words) (rat ATB^0,+ [1]): induced marked inward currents | K0.5 (substrate concentration for half-maximal current) (rat ATB^0,+ [1]): 369 ± 25 µM | Kt of ATB0,+-mediated glycine transport in the presence of inhibitor (rat ATB^0,+ [2]; 5 mM inhibitor, HRPE cells): 133 ± 36 µM | Vmax of ATB0,+-mediated glycine transport in the presence of inhibitor (rat ATB^0,+ [2]; 5 mM inhibitor, HRPE cells): 46 ± 9 nmol/10^6 cells/30 minutes | inhibition at 5000 µM (rat ATB^0,+ [2]; 5 mM inhibitor, HRPE cells, read-out: Inhibition of ATB0,+-mediated glycine transport): ~90% | IC50 (rat ATB^0,+ [2]; glycine 10 μM, HRPE cells, read-out: IC50 for inhibition of ATB0,+-mediated glycine transport): 423 ± 72 µM

[I-].[Na+] [NaI]
Current in SLC5A8 cRNA-injected oocytes (detectable or not) (human SLC5A8 [4]; 5 mM): did not induce any detectable current

CCC(=O)O [propionate]
Inward currents induced in ATB0,+-expressing oocytes (in words) (rat ATB^0,+ [1]): did not induce detectable current | Effect on cell growth / apoptosis [3]: induce apoptosis | IC50 [3]: 205 ± 40 µM | Fold increase of uptake (cRNA-injected over uninjected) (human SLC5A8 [5]): 15.9 fold | Uptake, cRNA-injected oocytes (human SLC5A8 [5]): 0.255 ± 0.014 | Uptake, uninjected oocytes (human SLC5A8 [5]): 0.016 ± 0.001 | Charge-to-substrate transfer ratio (human SLC5A8 [4]; 25 μM substrate, four oocytes): 3.1±0.1 | Hill coefficient (h) for Na+ (human SLC5A8 [4]; 5 mM substrate): 2.0±0.1 | Relative magnitude of substrate-induced currents (human SLC5A8 [4]; 5 mM, -50 mV): maximal | K0.5 for SLC5A8 (human SLC5A8 [4]; four oocytes): 127 ± 14 µM | Inhibition of ATB0,+-mediated glycine transport (in words) (rat ATB^0,+ [2]; HRPE cells): did not inhibit glycine transport

CCCCCCCC(=O)O [octanoate]
Relative magnitude of substrate-induced currents (human SLC5A8 [4]; 5 mM, -50 mV): lowest

C[C@H](O)C(=O)O [L-lactate]
Fold increase of uptake (cRNA-injected over uninjected) (human SLC5A8 [5]): 44.7 fold | Uptake, cRNA-injected oocytes (human SLC5A8 [5]): 0.402 ± 0.026 | Uptake, uninjected oocytes (human SLC5A8 [5]): 0.009 ± 0.001 | Inward current induced (human SLC5A8 [4]; 5 mM, -50 mV, taken as 100%): 489±94 nA | K0.5 for SLC5A8 (human SLC5A8 [4]; four oocytes): 235 ± 24 µM

CCC(=O)OC[C@H](N)C(=O)O [O-propionyl-L-serine, O-Propionyl-L-Serine]
Inward currents induced in ATB0,+-expressing oocytes (in words) (rat ATB^0,+ [1]): induced marked inward currents | K0.5 (substrate concentration for half-maximal current) (rat ATB^0,+ [1]): 305 ± 31 µM | IC50 (rat ATB^0,+ [2]): 332 ± 59 µM | Kt of ATB0,+-mediated glycine transport in the presence of inhibitor (rat ATB^0,+ [2]; 5 mM inhibitor, HRPE cells): 132 ± 37 µM | Vmax of ATB0,+-mediated glycine transport in the presence of inhibitor (rat ATB^0,+ [2]; 5 mM inhibitor, HRPE cells): 61 ± 13 nmol/10^6 cells/30 minutes | Inhibition of ATB0,+-mediated glycine transport (in words) (rat ATB^0,+ [2]; HRPE cells): inhibited glycine transport significantly

C[C@@H](O)C(=O)O [D-lactate]
Uptake, cRNA-injected oocytes (human SLC5A8 [5]): 1.090 ± 0.041 | Uptake, uninjected oocytes (human SLC5A8 [5]): 0.028 ± 0.002 | K0.5 for SLC5A8 (human SLC5A8 [4]; four oocytes): 742 ± 330 µM

TGF-α: growth factor used as mitogenic stimulus in SW480 cells
Cell proliferation (SW480): 37% | Increase of Na+-dependent arginine transport (SW480): 100%
